Laboratory results published in ChEMBL document CHEMBL1201862, “PubChem BioAssay data set” (2004).
Blank lines part the entries; values can stand above or below the molecule they belong to. Active and inactive are the calls of the source.

Legend:
[1] = target: DNA dC->dU-editing enzyme APOBEC-3A (Homo sapiens, UniProt P31941); test: A3A deaminase inhibition for selectivity – biochemical, dose response (AID 504722); type: functional
[2] = target: DNA dC->dU-editing enzyme APOBEC-3G (Homo sapiens, UniProt Q9HC16); test: Dose Response confirmation of small molecule APOBEC3G DNA Deaminase Inhibitors via a fluorescence-based single-stranded DNA deaminase assay. [Related pubchem assays (depositor defined):AID493012, AID493028]; type: functional
[3] = target: T1, Coagulation factor XII (Homo sapiens, UniProt P00748); test: Factor XIIa Dose Response Confirmation from Single Well HTS. [Related pubchem assays (depositor defined):AID701]; type: functional
T1 sequence (P00748 whole entry): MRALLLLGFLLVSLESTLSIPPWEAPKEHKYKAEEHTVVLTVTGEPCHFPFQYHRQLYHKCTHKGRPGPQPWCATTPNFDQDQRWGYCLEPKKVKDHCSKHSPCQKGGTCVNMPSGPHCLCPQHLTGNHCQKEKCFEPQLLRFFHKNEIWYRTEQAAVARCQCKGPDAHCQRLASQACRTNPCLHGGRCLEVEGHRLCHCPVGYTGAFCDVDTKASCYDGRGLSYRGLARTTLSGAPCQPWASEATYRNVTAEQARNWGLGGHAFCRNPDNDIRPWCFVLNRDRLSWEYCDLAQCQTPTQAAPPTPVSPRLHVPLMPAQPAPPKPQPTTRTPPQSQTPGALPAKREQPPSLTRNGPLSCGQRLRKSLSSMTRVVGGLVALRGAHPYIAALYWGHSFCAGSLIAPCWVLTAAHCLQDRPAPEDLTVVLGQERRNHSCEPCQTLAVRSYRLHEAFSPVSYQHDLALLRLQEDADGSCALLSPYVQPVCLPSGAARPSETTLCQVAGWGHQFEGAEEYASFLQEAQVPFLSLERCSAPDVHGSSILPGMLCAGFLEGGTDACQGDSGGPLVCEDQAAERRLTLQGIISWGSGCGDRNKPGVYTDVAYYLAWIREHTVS

[4] = target: Eukaryotic translation initiation factor 4E (Mus musculus, UniProt P63073); test: blockers of eIF4G binding by eIF4E – biochemical, TR-FRET, dose response (AID 855); type: functional;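 also: potency for disrupting eIF4E binding to eIF4GI seen as loss of FRET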
[5] = HEK-293T cell viability reduction – luminescence, B-cell screen hits, cytotoxicity control for BCR NF-kB inhibitor project, dose response (AID 489021); type: functional, cell-based;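 also: HEK-293T cells carrying an NF-kB luciferase reporter; cells exposed to compound for about 14 hours before viability readout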
[6] = target: T2, Zinc finger protein mex-5 (Caenorhabditis elegans, UniProt Q9XUB2); test: potency of MEX-5 RNA-binding blockers – biochemical, C. elegans, fluorescence polarization, dose response (AID 1960)
T2 sequence (Q9XUB2 whole entry): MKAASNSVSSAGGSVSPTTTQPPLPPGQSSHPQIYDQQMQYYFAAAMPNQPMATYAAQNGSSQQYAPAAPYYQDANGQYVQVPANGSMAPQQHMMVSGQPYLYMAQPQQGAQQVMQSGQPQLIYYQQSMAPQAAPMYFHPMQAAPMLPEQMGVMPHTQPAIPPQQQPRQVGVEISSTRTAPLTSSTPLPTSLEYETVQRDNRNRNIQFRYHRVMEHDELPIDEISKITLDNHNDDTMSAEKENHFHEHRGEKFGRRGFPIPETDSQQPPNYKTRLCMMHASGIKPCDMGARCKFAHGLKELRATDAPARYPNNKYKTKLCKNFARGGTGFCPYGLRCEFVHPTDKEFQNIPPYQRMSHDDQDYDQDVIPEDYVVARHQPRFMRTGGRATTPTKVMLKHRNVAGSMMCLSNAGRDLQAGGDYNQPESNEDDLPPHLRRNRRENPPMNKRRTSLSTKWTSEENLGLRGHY

[7] = target: T3, Runt-related transcription factor 1/Core-binding factor subunit beta (Homo sapiens, UniProt Q01196+Q13951); test: disruptors of Runt domain/CBFb-SMMHC interaction – biochemical, FRET, Cerulean-Runt, Venus-CBFb-SMMHC, uHTS, […] (AID 1434); type: protein assay
[8] = target: T4, RNA-binding protein pos-1 (Caenorhabditis elegans, UniProt G5EF15); test: disruptors of C. elegans POS-1 RNA interaction – biochemical, fluorescence polarization, dose response (AID 1964);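 also: purified POS-1 fused to maltose binding protein made in E. coli; potency of compounds blocking POS-1 binding to fluorescent RNA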
T4 sequence (G5EF15 whole entry): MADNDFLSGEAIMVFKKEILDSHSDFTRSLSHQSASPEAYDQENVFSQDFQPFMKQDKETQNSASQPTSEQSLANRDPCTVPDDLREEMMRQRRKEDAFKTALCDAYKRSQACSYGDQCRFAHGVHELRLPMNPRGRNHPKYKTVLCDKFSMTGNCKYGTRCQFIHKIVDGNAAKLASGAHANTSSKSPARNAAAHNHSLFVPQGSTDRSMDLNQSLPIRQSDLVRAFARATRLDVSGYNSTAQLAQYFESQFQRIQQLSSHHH

[9] = target: T3, Runt-related transcription factor 1/Core-binding factor subunit beta; test: Runt domain/CBFb-SMMHC interaction disruptors – biochemical, TR-FRET (AID 1438); type: protein assay
[10] = target: Intestinal-type alkaline phosphatase (Homo sapiens, UniProt P09923); test: Dose Response confirmation of uHTS hits from a small molecule inhibitors of human intestinal alkaline phosphatase via a luminescent assay. [Related pubchem assays (depositor defined):AID2544, AID2574]; type: functional
[11] = target: Trypsin (Sus scrofa, UniProt P00761); test: trypsin protease activity blockade – biochemical, quenched peptide fluorescence, cherry-pick, selectivity assay for Rce1 protease inhibitor project, dose response (AID 488789)
[12] = target: CAAX prenyl protease 2 (Saccharomyces cerevisiae S288c, UniProt Q03530); type: biochemical
[13] = target: Glyceraldehyde-3-phosphate dehydrogenase (Homo sapiens, UniProt P04406)
[14] = target: T5, Alkaline phosphatase, tissue-nonspecific isozyme (Homo sapiens, UniProt P05186); test: potency against alkaline phosphatase TNAP – biochemical, luminescent, dose response, SAR follow-up (AID 1056)
T5 sequence (P05186 whole entry): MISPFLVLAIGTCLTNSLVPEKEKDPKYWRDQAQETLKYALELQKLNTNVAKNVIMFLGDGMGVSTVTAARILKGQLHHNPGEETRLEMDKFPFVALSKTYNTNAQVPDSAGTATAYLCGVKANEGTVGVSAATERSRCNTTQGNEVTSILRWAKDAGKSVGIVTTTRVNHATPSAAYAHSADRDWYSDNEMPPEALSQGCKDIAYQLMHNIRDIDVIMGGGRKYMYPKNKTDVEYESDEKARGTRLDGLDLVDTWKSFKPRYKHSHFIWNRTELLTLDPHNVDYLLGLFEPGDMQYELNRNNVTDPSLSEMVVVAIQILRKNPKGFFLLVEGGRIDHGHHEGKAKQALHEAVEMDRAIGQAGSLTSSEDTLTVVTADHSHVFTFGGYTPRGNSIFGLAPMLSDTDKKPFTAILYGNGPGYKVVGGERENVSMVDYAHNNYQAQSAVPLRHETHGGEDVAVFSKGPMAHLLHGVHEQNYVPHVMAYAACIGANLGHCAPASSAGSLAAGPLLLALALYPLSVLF

[15] = target: Induced myeloid leukemia cell differentiation protein Mcl-1 (Homo sapiens, UniProt Q07820); type: functional
[16] = target: T6, Rac GTPase-activating protein 1 (Homo sapiens, UniProt Q9H0H5); test: blockers of MgcRacGAP-driven Rac1 GTP hydrolysis – biochemical, ADP Hunter fluorescence, primary and confirmatory, confirmation (AID 624330); type: functional
T6 sequence (Q9H0H5 whole entry): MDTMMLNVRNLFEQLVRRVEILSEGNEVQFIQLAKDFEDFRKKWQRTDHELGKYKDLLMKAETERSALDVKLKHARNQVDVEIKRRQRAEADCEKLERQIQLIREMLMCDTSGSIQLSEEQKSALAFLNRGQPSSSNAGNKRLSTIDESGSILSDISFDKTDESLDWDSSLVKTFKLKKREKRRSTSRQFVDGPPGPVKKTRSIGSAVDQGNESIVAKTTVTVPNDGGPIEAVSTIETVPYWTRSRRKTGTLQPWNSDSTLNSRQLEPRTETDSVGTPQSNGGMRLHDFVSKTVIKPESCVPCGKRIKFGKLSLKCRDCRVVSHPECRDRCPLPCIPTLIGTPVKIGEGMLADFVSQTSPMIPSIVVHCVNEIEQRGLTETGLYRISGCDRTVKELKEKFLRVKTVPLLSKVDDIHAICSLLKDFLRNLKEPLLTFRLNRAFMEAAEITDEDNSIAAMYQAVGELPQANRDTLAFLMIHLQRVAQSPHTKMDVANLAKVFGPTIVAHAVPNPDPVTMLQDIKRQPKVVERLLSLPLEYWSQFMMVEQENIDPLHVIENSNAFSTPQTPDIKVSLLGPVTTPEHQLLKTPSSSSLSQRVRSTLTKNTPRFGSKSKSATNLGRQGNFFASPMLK

[17] = tested on: Trypanosoma cruzi; test: anti-trypanosomal activity in host cells – cell-based, plate reader, dry powder, set 3, dose response (AID 493197); type: functional
[18] = target: Glucose-6-phosphate 1-dehydrogenase (Homo sapiens, UniProt P11413); test: inhibition of Homo sapiens G6PD, dose series – biochemical, fluorescence, selectivity assay for P. falciparum G6PD inhibitor project, dose response (AID 504792); type: functional
[19] = target: T7, Eukaryotic translation initiation factor 2-alpha kinase 3 (Homo sapiens, UniProt Q9NZJ5); test: Dose response cell-based high-throughput screening assay to measure PERK inhibition. [Related pubchem assays: 1416 ]; type: functional
T7 sequence (Q9NZJ5 whole entry): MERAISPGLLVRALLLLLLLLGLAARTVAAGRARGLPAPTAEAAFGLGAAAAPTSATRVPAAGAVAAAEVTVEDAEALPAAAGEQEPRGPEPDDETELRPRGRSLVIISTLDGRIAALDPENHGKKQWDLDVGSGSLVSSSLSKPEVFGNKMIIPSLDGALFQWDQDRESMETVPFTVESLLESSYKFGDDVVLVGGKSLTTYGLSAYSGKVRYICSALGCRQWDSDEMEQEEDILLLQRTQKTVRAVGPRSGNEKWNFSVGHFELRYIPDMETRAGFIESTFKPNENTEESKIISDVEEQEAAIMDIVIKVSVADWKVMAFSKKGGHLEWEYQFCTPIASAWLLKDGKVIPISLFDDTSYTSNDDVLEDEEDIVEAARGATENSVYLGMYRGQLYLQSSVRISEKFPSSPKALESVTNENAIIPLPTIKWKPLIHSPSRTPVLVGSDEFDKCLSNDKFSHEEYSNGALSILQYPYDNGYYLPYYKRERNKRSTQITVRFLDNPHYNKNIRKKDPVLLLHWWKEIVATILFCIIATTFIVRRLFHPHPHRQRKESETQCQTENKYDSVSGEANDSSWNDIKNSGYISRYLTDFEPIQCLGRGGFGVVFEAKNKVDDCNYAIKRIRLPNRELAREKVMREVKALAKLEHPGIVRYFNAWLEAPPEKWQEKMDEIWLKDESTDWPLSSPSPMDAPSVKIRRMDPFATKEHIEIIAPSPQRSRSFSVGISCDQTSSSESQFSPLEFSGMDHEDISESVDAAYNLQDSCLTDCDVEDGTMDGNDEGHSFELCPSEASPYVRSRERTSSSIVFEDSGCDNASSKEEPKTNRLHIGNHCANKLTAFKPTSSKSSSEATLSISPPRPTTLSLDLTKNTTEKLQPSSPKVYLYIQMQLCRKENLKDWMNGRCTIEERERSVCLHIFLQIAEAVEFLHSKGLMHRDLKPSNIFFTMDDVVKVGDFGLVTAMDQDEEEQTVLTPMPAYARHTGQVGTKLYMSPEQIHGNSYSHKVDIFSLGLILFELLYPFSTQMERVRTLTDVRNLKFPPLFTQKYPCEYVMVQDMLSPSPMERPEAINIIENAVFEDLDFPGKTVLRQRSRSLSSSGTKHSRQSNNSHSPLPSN

[20] = target: T7, Eukaryotic translation initiation factor 2-alpha kinase 3; test: Counterscreen assay for PERK inhibitors: Dose response cell-based high throughput screening assay to measure inhibition of PERK at 6 hours. [Related pubchem assays: 1522, 1416 ]; type: functional

Sequence of DNA dC->dU-editing enzyme APOBEC-3A (P31941 whole entry): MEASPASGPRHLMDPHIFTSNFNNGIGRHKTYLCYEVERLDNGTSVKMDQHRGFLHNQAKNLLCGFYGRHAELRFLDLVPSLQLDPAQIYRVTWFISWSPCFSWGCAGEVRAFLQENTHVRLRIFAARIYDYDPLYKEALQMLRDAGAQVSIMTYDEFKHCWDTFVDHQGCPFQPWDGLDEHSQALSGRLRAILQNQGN
Sequence of Eukaryotic translation initiation factor 4E (P63073 whole entry): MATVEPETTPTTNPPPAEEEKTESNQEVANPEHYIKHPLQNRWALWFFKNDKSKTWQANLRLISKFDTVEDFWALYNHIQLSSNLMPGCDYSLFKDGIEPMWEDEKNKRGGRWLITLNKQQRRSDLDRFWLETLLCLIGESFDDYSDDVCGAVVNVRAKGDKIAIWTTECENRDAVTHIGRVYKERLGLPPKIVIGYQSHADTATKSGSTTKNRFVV
Sequence of DNA dC->dU-editing enzyme APOBEC-3G (Q9HC16 whole entry): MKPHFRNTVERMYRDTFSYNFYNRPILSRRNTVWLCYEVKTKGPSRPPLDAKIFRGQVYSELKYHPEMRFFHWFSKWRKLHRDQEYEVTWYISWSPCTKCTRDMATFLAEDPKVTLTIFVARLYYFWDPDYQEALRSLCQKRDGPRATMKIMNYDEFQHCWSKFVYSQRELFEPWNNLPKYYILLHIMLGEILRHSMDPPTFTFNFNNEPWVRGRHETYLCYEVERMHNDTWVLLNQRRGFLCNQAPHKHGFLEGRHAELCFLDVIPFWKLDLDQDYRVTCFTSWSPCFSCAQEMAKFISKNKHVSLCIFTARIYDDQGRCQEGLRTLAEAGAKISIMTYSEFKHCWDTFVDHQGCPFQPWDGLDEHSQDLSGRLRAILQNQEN
T3 sequence (Q01196 whole entry, the tested form may be a part): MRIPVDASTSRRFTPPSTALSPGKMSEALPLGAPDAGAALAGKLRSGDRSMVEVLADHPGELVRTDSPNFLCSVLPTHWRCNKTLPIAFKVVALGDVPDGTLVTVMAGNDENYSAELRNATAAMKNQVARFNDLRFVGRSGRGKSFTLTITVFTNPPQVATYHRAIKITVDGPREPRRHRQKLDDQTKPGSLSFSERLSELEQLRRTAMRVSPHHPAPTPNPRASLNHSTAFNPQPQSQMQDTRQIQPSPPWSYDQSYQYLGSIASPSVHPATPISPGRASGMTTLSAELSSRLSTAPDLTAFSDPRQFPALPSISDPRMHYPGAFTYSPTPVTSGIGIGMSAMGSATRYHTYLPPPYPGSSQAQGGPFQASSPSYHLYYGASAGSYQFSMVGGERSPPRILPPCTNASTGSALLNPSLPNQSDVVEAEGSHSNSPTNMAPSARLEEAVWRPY
T3 sequence (Q13951 whole entry, the tested form may be a part): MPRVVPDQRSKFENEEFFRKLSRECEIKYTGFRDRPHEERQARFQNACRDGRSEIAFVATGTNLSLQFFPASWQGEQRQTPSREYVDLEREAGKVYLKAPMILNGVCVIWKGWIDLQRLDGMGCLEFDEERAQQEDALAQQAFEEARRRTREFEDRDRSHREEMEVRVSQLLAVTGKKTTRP
Sequence of Induced myeloid leukemia cell differentiation protein Mcl-1 (Q07820 whole entry): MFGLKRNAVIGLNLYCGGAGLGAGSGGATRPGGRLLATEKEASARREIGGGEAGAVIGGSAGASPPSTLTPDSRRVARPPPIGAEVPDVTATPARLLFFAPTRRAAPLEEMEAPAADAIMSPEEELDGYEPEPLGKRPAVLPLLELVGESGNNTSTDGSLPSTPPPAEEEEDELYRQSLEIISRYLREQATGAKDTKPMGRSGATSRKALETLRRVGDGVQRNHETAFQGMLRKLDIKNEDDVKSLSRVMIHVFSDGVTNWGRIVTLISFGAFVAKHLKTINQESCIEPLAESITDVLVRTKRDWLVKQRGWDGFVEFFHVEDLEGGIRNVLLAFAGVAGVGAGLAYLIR
Sequence of Intestinal-type alkaline phosphatase (P09923 whole entry): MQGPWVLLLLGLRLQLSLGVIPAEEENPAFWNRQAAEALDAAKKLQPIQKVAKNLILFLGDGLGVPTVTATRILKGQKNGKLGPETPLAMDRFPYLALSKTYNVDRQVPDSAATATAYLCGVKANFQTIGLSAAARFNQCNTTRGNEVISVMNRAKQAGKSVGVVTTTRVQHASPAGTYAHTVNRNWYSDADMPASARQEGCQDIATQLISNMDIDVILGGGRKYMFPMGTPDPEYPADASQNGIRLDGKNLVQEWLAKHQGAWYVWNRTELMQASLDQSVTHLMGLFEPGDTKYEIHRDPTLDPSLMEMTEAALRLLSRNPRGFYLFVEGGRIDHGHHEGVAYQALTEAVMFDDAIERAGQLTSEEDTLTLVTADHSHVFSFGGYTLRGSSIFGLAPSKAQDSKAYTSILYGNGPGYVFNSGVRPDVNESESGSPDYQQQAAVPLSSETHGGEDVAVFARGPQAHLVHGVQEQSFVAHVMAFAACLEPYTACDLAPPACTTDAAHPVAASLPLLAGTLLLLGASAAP
Sequence of Trypsin (P00761 whole entry): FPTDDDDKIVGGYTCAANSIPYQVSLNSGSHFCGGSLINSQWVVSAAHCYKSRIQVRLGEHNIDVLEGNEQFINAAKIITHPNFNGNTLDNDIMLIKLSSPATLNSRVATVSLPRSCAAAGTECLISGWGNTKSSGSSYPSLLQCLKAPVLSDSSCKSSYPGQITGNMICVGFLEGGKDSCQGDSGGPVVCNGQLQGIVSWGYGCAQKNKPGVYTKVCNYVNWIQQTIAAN
Sequence of Glucose-6-phosphate 1-dehydrogenase (P11413 whole entry): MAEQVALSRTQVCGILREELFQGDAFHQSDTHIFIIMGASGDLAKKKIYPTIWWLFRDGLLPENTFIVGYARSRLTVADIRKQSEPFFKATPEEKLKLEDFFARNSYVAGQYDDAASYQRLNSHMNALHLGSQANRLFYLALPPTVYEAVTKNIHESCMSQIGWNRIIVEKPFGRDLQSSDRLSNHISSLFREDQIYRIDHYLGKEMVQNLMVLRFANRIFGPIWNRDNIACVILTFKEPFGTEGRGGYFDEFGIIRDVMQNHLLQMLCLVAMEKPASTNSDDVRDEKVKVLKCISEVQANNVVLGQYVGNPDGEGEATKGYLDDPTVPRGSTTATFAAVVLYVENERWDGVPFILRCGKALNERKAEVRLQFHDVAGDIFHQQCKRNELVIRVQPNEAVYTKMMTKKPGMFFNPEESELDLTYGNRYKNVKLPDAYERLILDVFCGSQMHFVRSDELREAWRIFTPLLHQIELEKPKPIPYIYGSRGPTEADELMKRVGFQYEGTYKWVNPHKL
Sequence of CAAX prenyl protease 2 (Q03530 whole entry): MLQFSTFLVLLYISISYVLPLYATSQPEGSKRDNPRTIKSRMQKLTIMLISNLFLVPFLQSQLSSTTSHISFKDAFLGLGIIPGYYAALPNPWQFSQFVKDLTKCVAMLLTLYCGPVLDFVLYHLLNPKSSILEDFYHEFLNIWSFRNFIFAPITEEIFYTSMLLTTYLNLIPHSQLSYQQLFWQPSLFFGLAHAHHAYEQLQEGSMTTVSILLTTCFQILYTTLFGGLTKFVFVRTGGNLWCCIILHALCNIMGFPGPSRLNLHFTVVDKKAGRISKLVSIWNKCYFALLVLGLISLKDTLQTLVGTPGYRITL
Sequence of Glyceraldehyde-3-phosphate dehydrogenase (P04406 whole entry): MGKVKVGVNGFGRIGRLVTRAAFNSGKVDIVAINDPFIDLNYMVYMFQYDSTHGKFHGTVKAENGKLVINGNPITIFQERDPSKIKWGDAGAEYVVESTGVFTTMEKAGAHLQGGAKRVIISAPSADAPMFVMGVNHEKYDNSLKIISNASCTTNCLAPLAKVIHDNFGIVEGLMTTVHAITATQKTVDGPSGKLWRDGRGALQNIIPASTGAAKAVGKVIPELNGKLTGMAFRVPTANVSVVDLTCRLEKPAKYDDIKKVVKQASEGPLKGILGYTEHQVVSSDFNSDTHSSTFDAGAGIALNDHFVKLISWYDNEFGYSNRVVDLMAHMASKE

Structure (SMILES): Cc1ccc(-c2cn3c(S)nnc3s2)cc1
IC50 [1]: > 100 µM (inactive)
IC50 [2]: 2.61 µM (active)

Structure (SMILES): CSc1cccc(NC(=S)N(Cc2ccc(C)cc2)Cc2cccnc2)c1
IC50 [4]: 50 µM (inactive)

Structure (SMILES): COC(=O)c1c(NC(=O)c2cccc([N+](=O)[O-])c2)sc(C(N)=O)c1C
IC50 [5]: > 80 µM (inactive)

Structure (SMILES): Oc1ccc(-c2cnns2)c(O)c1
EC50 [6]: 10.4 µM (active)
IC50 [7]: 31.5 µM (active)
EC50 [8]: 45.5 µM (active)
IC50 [9]: 19.9 µM (active)

Structure (SMILES): O=C1C=CC(=Nc2nc(O)c(-c3c(O)[nH]c4ccccc34)s2)C=C1
IC50 [15]: 1.67 µM (active)
IC50 [16]: 59.2 µM (active)
IC50 [4]: 50 µM (inactive)

Structure (SMILES): CN(Cc1ccccc1)C(=O)C1CCCN(Cc2ccccc2)C1 (stereo not given)
AC50 [17]: 5.07 µM (active)

Structure (SMILES): COc1cc(/C=N/n2cc(-c3ccccc3)nc2S)cc(OC)c1O
IC50 [1]: > 100 µM (inactive)
IC50 [2]: 5.9 µM (active)
IC50 [18]: > 80 µM (inactive)

Structure (SMILES): N/C(=N\N=C\c1ccc([N+](=O)[O-])cc1)c1nonc1N
EC50 [19]: > 55.7 µM (not active)
EC50 [20]: > 55.7 µM (not active)

Structure (SMILES): C/C(=N/N=C1\SCC(=O)N1c1ccccc1)c1ccc(C)cc1
EC50 [19]: > 55.7 µM (not active)
EC50 [20]: > 55.7 µM (not active)

Now from value to molecule:

IC50 [3]: > 50 µM (inactive)
Structure (SMILES): Cc1ccc(-c2n[nH]c(=O)c3ccccc23)cc1S(=O)(=O)NCCO

IC50 [10]: > 100 µM (inactive)
Structure (SMILES): COc1ccc(CCN2C(=O)c3ccncc3C2=O)cc1OC

AC50 [11]: 8.29 µM (active)
AC50 [12]: 10.3 µM (active)
Structure (SMILES): COC(=O)c1cnn2c3c(c(C)nc12)CCCC3

IC50 [13]: > 10 µM (inconclusive)
IC50 [14]: > 10 µM (inactive)
Structure (SMILES): COc1ccccc1C(=O)Nc1cnc2ccccc2c1
